The source of these data is patent US6207397A, “In vitro fluorescence polarization assay” (ARIAD Pharmaceuticals, Inc., priority 1997, dated 2001).

pIC50, pKd: −log10 of the molar value. Read-outs that look alike come from different tables or passages of the source. Square brackets hold non-standard residues; d marks the D form. Peptide text beside a SMILES is read from it. * marks the point of attachment. 5FAM = O=C1OC2(c3ccc(O)cc3Oc3cc(O)ccc32)c2ccc(C(=O)*)cc21; pY = N[C@@H](Cc1ccc(OP(=O)(O)O)cc1)C(=O)O

Series [1] in a line: Hydrophobicity of the BODIPY-TRX peptide probe. Format: physicochemical. The settings on record: resultant peptide. An excerpt: (§1) Synthesis of the peptide portion of the probe was as described in Example 1, with production of the peptide NH2-pYEEI. The probe was further synthesized by coupling the free amine peptide, NH2-pYEEI, with the succinimidyl ester of the BODIPY-TRX probe in a 66% DMSO buffer (34% 0.1 MNaBicarbonate). Completion of reaction was monitored by silica gel TLC (4:1:1, butanol, H2O , Acetic Acid solvent system), and was done by 24 hrs.

The target of series [2] is T1, Src-SH2 (Homo sapiens, UniProt P12931).
T1 construct: Human Src encoding residues 145-251; made in house; host or cells: E. coli BL21 (DE3), pT7 expression vector
Kind of series: Fluorescence polarization saturation experiment with Src-SH2 using an alternate (BODIPY-TRX) probe. The class given is binding. The settings on record: filters 591/635.
Description: A competition assay was developed for Src-SH2 (applicable to any fragment of Src containing the SH2 domain) with a non-fluorescein fluorophore. The fluorophore is one of a family of fluorescent molecules containing the core fluorophore, 4,4-difluoro-4 bora-3a,4a-diaza-s-indacene (commerciallyavailable from Molecular Probes Inc.). The structure of the fluorophore-peptide probe is: [drawing 2]
Specifically, the excitation/emission filters used with the above are 591/635, compared to 485/530 for fluorescein.
as §1
The only difference was the use of an alternate set of filters for the red probe, as described in A above.
For orientation: Fluorescence polarisation rises when a labelled molecule tumbles more slowly, as on binding a larger partner.

The target in a further series is T2, Src-SH2 domain (Homo sapiens, UniProt P12931).
T2 construct: Human Src encoding residues 145-251; made in house; host or cells: E. coli BL21 (DE3), pT7 expression vector
Kind of series: Fluorescence polarization saturation experiment of probe FMT1 with Src-SH2. Format: binding. As to the method:
Human Src encoding residues 145-251 [Tanaka, A. and Fujita, D. J., Mol. Cell. Biol. 6:3900-3909 (1986)] was cloned into the pT7 expression vector and transformed into E. coli BL21 (DE3). Protein was produced from the growth and induction of 27 liters of culture in minimal medium. In a typical preparation, the culture was grown at 37° C. to an optical density (OD) of 1.0 at 595 nm. The culture was induced with 1 mM isopropyl--D-thiogalactopyranoside (IPTG) and the temperature was dropped to 25° C. The culture was harvested 21 hours later.
(§2) All polarization methods were performed on an FPM2 96-well plate reader (Jolley), with standard cutoff filters (excitation=485 nm; emission=530 nm). Saturation experiments were used to explore various conditions for the assay, with the aim of maximizing the protein and assay stability, and of determining Kd s of the protein/probe interaction.
For saturation experiments, fixed concentrations of probe were used, and increasing concentrations of Src-SH2 were added. This is the reverse of the way such assays are commonly done with radioactive ligands.
A saturation experiment was conducted in which the Src-SH2 domain is varied in concentration from a high of 40 uM to a low of 39 nM. The fluorescent probe FMT1 (FIG. 1) was kept at a fixed concentration of 20 nM. Amino acid analysis was used to quantitate both the protein and probe concentrations. The results are illustrated in the saturation curve and Scatchard analysis of FIGS. 2A and 2B, respectively from this experiment.

The target in the next series is T3, Src SH3 (Homo sapiens, UniProt P12931).
T3 construct: SH3-specific probe
Kind of series: Fluorescence polarization saturation experiment, Src SH3 binding assay with Src-SH2-SH3 protein. The settings on record: SH3 probe. An excerpt:
Biol. 7(5): 1978-1983 (1987)], and a probe specific for the Src SH3 domain (in place of the Src-specific SH2 probe). Note that larger or smaller Src proteins may be used, so long as they include the Src SH3 domain (with or without the Src SH2 domain). Production and purification of the protein were essentially as described above, e.g., see Example 3. The following details are provided:
The following Src SH3 specific probe ("FPSH3") was synthesized using the techniques described in Example 1: […]

In the next series the target is GRB2 SH2 (Homo sapiens, UniProt P62993). The settings on record: saturation with GRB2 SH2 protein. Here is the method: The human GRB2 protein tested in the assay comprised amino acid residues 55-152 of huGRB2 [see Cell 70: 431-442 (1992)], although longer sequences encompassing the SH2 domain may also be used. Production and purification of the protein domain was similar to methods described above, especially the use of a phosphotyrosine column to purify the GRB2 SH2domain.
As in previous examples, saturation experiments were performed with fixed concentrations of probe and increasing concentrations of Grb-2-SH2.
The following Grb-2-specific SH2 probe ("FPgb2") was synthesized using the techniques described in Example 1 [drawing 1] 2, Fluor-GpYVNV-NH2

Series [3] addresses T1, Src-SH2. Put plainly: Fluorescence polarization Src-SH2 competition assay with peptides. Format: binding. The settings on record: for pIC50: TABLE 1, fixed probe and Src-SH2, increasing peptide, read-out: Peptide competitive IC50. Here is the method: as §2
For competition experiments, fixed concentrations of probe and protein were used, and increasing concentrations of peptides were added.
All buffer components were low-fluorescence grade (Panvera Corporation). Standard (STD) buffer contains 20 mM phosphate (pH 7.4), 100 mM NaCl, 2 mM DTT, 1 mM EDTA, and 100 ug/ml BGG. Standard buffer is prepared by preparing NaCl, EDTA and phosphate stocks in Millipore water or the cleanest available water supply. The buffer is brought to volume in the same clean water.
The SRC protein is used at a concentration of 0.75 uM final. An example of SRC stock solution is 416.6 uM in STD buffer. […] It is desirable to make a 2× stock of this. For assays where the tighter-binding pYpYpYIE probe is used, the Src protein concentration can be reduced to 150 nM. In general, the concentration of the protein can be adjusted to match the affinity of the probe.
Fluor-GpYEEI is used as the probe at a concentration of 20 nM final. The probe stock sent is 10 uM in STD buffer.

The target of a further series is Src SH2-SH3 (Homo sapiens, UniProt P12931). Put plainly: Fluorescence polarization saturation experiment, Src SH2-SH3 double binding assay. The settings on record: saturation with Src-SH2-SH3; SH2-SH3 probe. An excerpt: Proteins such as Src contain both an SH2 and an SH3 domain. Certain proteins can bind to such SH2- SH3 proteins not through SH2 or SH3 domains alone, but through both domains at once. One example is the protein, p130CAS, which is thought to bind Src via both SH2 and SH3 domains. The SH3 and SH2 binding sequences of p130CAS have been identified by deletional and site-specific mutagenesis (Nakamoto et. al., JBC 271, 8959-8965, 1996). […] Fluorescent probes for FP assays were designed based on these sequences. Such probes can be used in assays that allow simultaneous screening for both SH2-specific and SH3-specific inhibitors. One such probe ("FPC130") is the following:
This is the native sequence from p130CAS (733-767). Derivative probes based on the foregoing but using different component SH2 and/or SH3 sequences may be used to vary the affinity or protein specificity, and especially to increase the overall affinity of probe for the desired target protein.

A word on the pIC50: it is −log10 of the IC50, conventionally taken in molar units.

Sequence of GRB2 SH2 (P62993 55-152): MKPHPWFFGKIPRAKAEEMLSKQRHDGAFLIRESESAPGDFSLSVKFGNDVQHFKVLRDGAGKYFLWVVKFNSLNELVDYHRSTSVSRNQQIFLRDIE

Regarding `CC[C@H](C)[C@H](NC(=O)[C@H](CCC(=O)O)NC(=O)[C@H](CCC(=O)O)NC(=O)[C@H](Cc1ccc(OP(=O)(O)O)cc1)NC(=O)CCCCCNC(=O)CC1=C(C)C2=Cc3ccc(-c4ccc(OC)cc4)n3[B-](F)(F)[N+]2=C1C)C(N)=O` [BODIPY-TRX probe], the Hydrophobicity result in series [1] is “quite hydrophobic”. Moreover, the “Kd and total mP difference on protein binding” value (“Kd and total mP difference” for short) at Src-SH2 [2] is “adequate Kd and total mP difference on protein binding”.
Turning to `CC[C@H](C)[C@H](NC(=O)[C@H](CCC(=O)O)NC(=O)[C@H](CCC(=O)O)NC(=O)[C@H](Cc1ccc(OP(=O)(O)O)cc1)NC(=O)CNC(=O)c1ccc2c(c1)C(=O)OC21c2ccc(O)cc2Oc2cc(O)ccc21)C(N)=O` [FMT1, fluorescein-G-pYEEI-NH2] (5FAM-G[pY]EEI-NH2), the pKd on Src-SH2 domain (FIG. 2A, error of 0.008, FMT1 fixed at 20 nM, Src-SH2 39 nM to 40 uM, read-out: Calculated Kd (non-linear least squares fit of saturation experiment)) is 6.62; at Src-SH2 domain (FIG. 2B, R value 0.992 for the linear fit, read-out: Calculated Kd (Scatchard analysis)) it was 6.59; on Src-SH2 domain (standard buffer conditions, read-out: Kd towards Src-SH2), approximately 6.52. Moreover, at Src-SH2 domain (FIGS. 2A and 2B), the “Binding mode in saturation experiment” value was “saturable binding to a single site is observed”.
For the molecule `CC(C)C[C@H](NC(=O)[C@@H]1CCCN1C(=O)c1ccc2c(c1)C(=O)OC21c2ccc(O)cc2Oc2cc(O)ccc21)C(=O)N[C@@H](C)C(=O)N[C@@H](CCCNC(=N)N)C(=O)N[C@@H](CCCNC(=N)N)C(=O)N1CCC[C@H]1C(=O)N[C@@H](CC(C)C)C(=O)N1CCC[C@H]1C(=O)N1CCC[C@H]1C(=O)N[C@@H](CC(C)C)C(=O)N1CCC[C@H]1C(N)=O` [FPSH3] (5FAM-PLARRPLPPLP-NH2), the “Kd and total mP difference” value at Src SH3 is “appropriate Kd and total mP difference on protein binding”.
In the case of `CC(C)[C@H](NC(=O)[C@H](CC(N)=O)NC(=O)[C@@H](NC(=O)[C@H](Cc1ccc(OP(=O)(O)O)cc1)NC(=O)CNC(=O)c1ccc2c(c1)C(=O)OC21c2ccc(O)cc2Oc2cc(O)ccc21)C(C)C)C(N)=O` [FPgb2, Fluor-GpYVNV-NH2] (5FAM-G[pY]VNV-NH2), the “Kd and total mP difference” value at GRB2 SH2 is “appropriate Kd and total mP difference on protein binding”.
Take `CC[C@H](C)[C@H](NC(=O)[C@H](Cc1ccc(OP(=O)(O)O)cc1)NC(=O)[C@H](Cc1ccc(OP(=O)(O)O)cc1)NC(=O)[C@H](Cc1ccc(OP(=O)(O)O)cc1)NC(=O)c1ccc2c(c1)C(=O)OC21c2ccc(O)cc2Oc2cc(O)ccc21)C(=O)N[C@@H](CCC(=O)O)C(N)=O` [pYpYpYIE probe, fluorescein-pYpYpYIE-NH2] (5FAM-[pY][pY][pY]IE-NH2): the “Relative binding of probe to Src” value at Src-SH2 [3] (probe allowing Src protein reduced to 150 nM) is given as “tighter-binding”.
In the case of Ac-pYGGL, on Src-SH2 [3], the pIC50 is 3.15.
Take Ac-pYTGL: the pIC50 at Src-SH2 [3] was 4.00.
The same measure, in the same setting: the result for Ac-pYpYEEI reads 5.82.
On the same count and under the same terms, with Ac-pYpYpYIE the figure was 6.30.
With “Fluor-RPLPSPPKFTSQDSPDGQYENSEGGWMEDpYDYVHL [FPC130]”, in the series with Src SH2-SH3, the “Kd and total mP difference” value is “appropriate Kd and total mP difference on protein binding”.
